Results: the supplement of paper PMC10307832

Legend:
Test in all cases: relative viability (nuclei count vs DMSO), 5 days (fraction); higher = more cells survive
Nelarabine + Linsitinib = compound: COc1nc(N)nc2c1ncn2[C@@H]1O[C@H](CO)[C@@H](O)[C@@H]1O [Nelarabine] + C[C@]1(O)C[C@@H](c2nc(-c3ccc4ccc(-c5ccccc5)nc4c3)c3c(N)nccn32)C1 [Linsitinib] (partner 1 µM)
How it was run: (§1)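 Dosing by pin tool came one day after lung cancer cell lines were seeded in 1536-well plates, using either one drug or a fixed anchor-drug dose plus five library-drug doses (not always all listed) in √10 steps. After 5 days, nuclei were counted on 4× images. Relative viability is treated-well nuclei count divided by vehicle-well nuclei count, and values are medians of duplicate plates.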

[1] = compound: C=CCn1c(=O)c2cnc(Nc3ccc(N4CCN(C)CC4)cc3)nc2n1-c1cccc(C(C)(C)O)n1 [Adavosertib] + CC(=O)c1c(C)c2cnc(Nc3ccc(N4CCNCC4)cn3)nc2n(C2CCCC2)c1=O [Palbociclib] (partner 0.5 µM)
How it was run: as §1

Nelarabine + Crizotinib = compound: COc1nc(N)nc2c1ncn2[C@@H]1O[C@H](CO)[C@@H](O)[C@@H]1O [Nelarabine] + C[C@@H](Oc1cc(-c2cnn(C3CCNCC3)c2)cnc1N)c1c(Cl)ccc(F)c1Cl [Crizotinib] (partner 1 µM)
How it was run: as §1

Adavosertib + Navitoclax = compound: C=CCn1c(=O)c2cnc(Nc3ccc(N4CCN(C)CC4)cc3)nc2n1-c1cccc(C(C)(C)O)n1 [Adavosertib] + CC1(C)CCC(c2ccc(Cl)cc2)=C(CN2CCN(c3ccc(C(=O)NS(=O)(=O)c4ccc(N[C@H](CCN5CCOCC5)CSc5ccccc5)c(S(=O)(=O)C(F)(F)F)c4)cc3)CC2)C1 [Navitoclax] (partner 0.5 µM)
How it was run: as §1

Cell Line	relative viability (Nelarabine + Linsitinib; first compound 0.01 µM)	relative viability (Nelarabine + Linsitinib; first compound 0.03162 µM)	relative viability (Nelarabine + Linsitinib; first compound 0.1 µM)	relative viability (Nelarabine + Linsitinib; first compound 0.3162 µM)	relative viability (Nelarabine + Linsitinib; first compound 1 µM)	relative viability ([1]; first compound 0.01 µM)	relative viability ([1]; first compound 0.03162 µM)	relative viability ([1]; first compound 0.1 µM)	relative viability ([1]; first compound 0.3162 µM)	relative viability (Nelarabine + Crizotinib; first compound 0.01 µM)	relative viability (Nelarabine + Crizotinib; first compound 0.03162 µM)	relative viability (Nelarabine + Crizotinib; first compound 0.1 µM)	relative viability (Nelarabine + Crizotinib; first compound 0.3162 µM)	relative viability (Nelarabine + Crizotinib; first compound 1 µM)	relative viability (Adavosertib + Navitoclax; first compound 0.01 µM)	relative viability (Adavosertib + Navitoclax; first compound 0.03162 µM)	relative viability (Adavosertib + Navitoclax; first compound 0.1 µM)	relative viability (Adavosertib + Navitoclax; first compound 0.3162 µM)
RERF-LC-KJ	0.908	1.06	0.915	0.907	0.884	0.977	1.07	1.14	1.03	0.871	0.954	0.82	0.846	0.902	1.01	0.751	0.828	0.952
EKVX	1.08	0.849	0.851	1.19	0.941	0.365	0.354	0.344	0.5	1.16	0.83	0.894	1.41	0.979	0.927	0.929	0.944	1.2
LOU-NH91	1.02	0.953	0.865	0.886	0.947	0.609	0.497	0.548	0.531	0.755	1	0.73	0.739	0.733	0.718	0.688	0.663	0.53
NCI-H647	1.7	1.02	1.26	1.21	1.35	0.408	0.461	0.261	0.316	1.37	1.22	1.13	1.41	1.14	1.15	1.17	1.12	0.985
NCI-H3122	1.04	0.77	–	0.97	1.04	0.216	0.198	0.184	0.213	0.265	0.197	–	0.301	0.268	1.07	1.02	1	1.01
H3255	1.31	1.09	1.12	0.885	0.957	0.317	0.341	0.333	0.32	1.04	0.821	0.906	0.881	0.913	0.374	0.473	0.508	0.447
SW 1573	0.82	0.646	0.848	0.799	0.73	0.364	0.42	0.401	0.392	0.788	0.769	0.745	0.733	0.717	1.07	0.988	1.29	0.926
HCC-15	1.06	0.841	0.904	0.87	1	0.744	0.706	0.739	0.899	1.01	0.782	0.86	0.97	0.887	0.699	0.712	0.801	0.821
PC-3 [JPC-3]	1.05	0.958	0.943	0.942	0.975	–	0.502	0.28	0.544	1.15	1.02	1.01	0.977	0.968	0.842	0.782	0.797	0.716
NCI-H1915	1.15	1.08	1.06	1.1	1.1	0.535	0.564	0.645	0.644	1.23	0.941	0.953	0.916	0.881	0.831	0.766	0.804	0.786
PC-14	1.03	0.96	0.986	0.979	1.03	0.508	0.577	0.516	0.0749	0.909	0.89	0.875	0.832	0.868	1.06	0.963	1.02	0.528
LK-2	1.24	–	0.608	0.691	0.673	0.7	0.937	0.879	0.761	0.222	–	0.223	0.205	0.206	0.98	0.882	0.989	0.808
COR-L 105	0.863	1.03	0.95	1.04	0.984	0.374	0.419	0.415	0.444	0.998	0.752	0.678	0.894	0.844	0.886	0.72	0.746	0.617
UMC-11	1.34	0.768	0.949	0.987	0.896	0.326	0.339	0.348	0.351	0.52	0.499	0.476	0.652	0.495	0.311	0.287	0.331	0.321
NCI-H1975	1.19	1.03	1.12	1.09	1.15	0.551	0.559	0.488	0.608	1.15	0.91	1.11	1.08	1.1	1.17	1.25	1.01	0.483
LXF-289	1.01	0.935	0.969	0.997	0.949	0.576	0.619	0.656	0.735	0.893	0.779	0.804	0.896	0.781	0.959	1.03	0.992	1.03
NCI-H1993	0.803	0.7	0.834	0.662	0.668	0.656	0.701	0.725	0.934	0.96	0.891	0.775	0.93	1.02	1.02	0.977	1.01	0.934
NCI-H23	0.749	0.671	0.613	0.623	0.622	0.503	0.53	0.419	0.219	0.505	0.485	0.297	0.495	0.515	0.89	0.677	0.938	0.368

Cell Line	relative viability (Nelarabine + Linsitinib; first compound 0.01 µM)	relative viability (Nelarabine + Linsitinib; first compound 0.03162 µM)	relative viability (Nelarabine + Linsitinib; first compound 0.1 µM)	relative viability (Nelarabine + Linsitinib; first compound 0.3162 µM)	relative viability (Nelarabine + Linsitinib; first compound 1 µM)	relative viability ([1]; first compound 0.01 µM)	relative viability ([1]; first compound 0.03162 µM)	relative viability ([1]; first compound 0.1 µM)	relative viability ([1]; first compound 0.3162 µM)	relative viability (Nelarabine + Crizotinib; first compound 0.01 µM)	relative viability (Nelarabine + Crizotinib; first compound 0.03162 µM)	relative viability (Nelarabine + Crizotinib; first compound 0.1 µM)	relative viability (Nelarabine + Crizotinib; first compound 0.3162 µM)	relative viability (Nelarabine + Crizotinib; first compound 1 µM)	relative viability (Adavosertib + Navitoclax; first compound 0.01 µM)	relative viability (Adavosertib + Navitoclax; first compound 0.03162 µM)	relative viability (Adavosertib + Navitoclax; first compound 0.1 µM)	relative viability (Adavosertib + Navitoclax; first compound 0.3162 µM)
NCI-H2023	0.7	0.854	0.554	0.625	0.561	0.412	0.377	0.331	0.202	0.831	0.672	0.59	0.578	0.605	1.03	0.959	0.912	0.6
COR-L23	1.12	0.996	1	0.911	1.06	0.291	0.338	0.274	0.205	0.692	0.706	0.574	0.617	0.628	1.14	1.03	1.14	0.293
LCLC-97TM1	0.222	0.163	0.242	0.225	0.186	0.25	0.213	0.237	0.294	0.481	0.364	0.199	0.401	0.383	–	0.372	0.473	0.257
NCI-H441	0.679	0.605	0.614	0.52	0.603	0.234	0.25	0.241	0.197	0.715	0.856	0.723	0.836	0.716	0.645	0.741	0.64	0.401
NCI-H1734	0.954	0.855	0.932	0.931	0.939	0.332	0.326	0.353	0.375	0.694	0.668	0.568	0.772	0.804	0.866	0.818	0.877	0.821
NCI-H1437	1.27	1.05	0.998	1.08	1.01	0.333	0.313	0.305	0.35	1.27	0.844	0.912	0.895	0.905	1.05	1.13	1.16	1.11
NCI-H727	0.28	0.331	0.299	0.306	0.271	0.584	0.699	0.637	0.658	1.05	1.06	0.765	0.94	0.865	0.468	0.566	0.678	0.372
NCI-H1651	1.13	0.88	1.15	0.992	0.906	0.499	0.523	0.572	0.612	0.959	0.818	0.902	0.891	0.899	0.993	1.13	1.17	0.748
NCI-H838	1.29	0.907	1.06	1.11	1.13	0.232	0.211	0.224	0.213	0.975	0.575	0.766	1.02	0.792	1.16	1.11	1.18	1.13
NCI-H460	1.09	0.891	1.12	1.21	0.731	0.182	0.19	0.181	0.125	1.32	1.1	1.02	1.08	1.05	0.942	1.18	1.45	0.861
HCC-78	0.627	0.506	–	0.536	0.574	0.531	0.525	0.508	0.428	0.379	0.365	–	0.34	0.338	0.81	0.686	0.894	0.79
SK-LU-1	1.45	0.835	1.1	1.11	1.35	0.405	0.467	0.398	0.342	1.27	0.518	1.04	1.01	0.994	0.759	0.594	0.989	0.238
HOP-62	0.933	0.967	1.11	0.872	0.801	0.496	0.513	0.59	0.486	1.08	0.933	0.998	0.91	0.831	1.12	1.16	1.4	1.35
NCI-H2228	0.519	0.832	–	0.63	0.898	–	0.746	0.62	0.545	0.414	0.371	–	0.351	0.436	0.691	1.41	0.885	0.305
SK-MES-1	1.15	1.09	1.03	1.1	1.08	0.343	0.337	0.305	0.25	1.07	0.922	0.961	1.05	1.1	1.17	1.25	1.31	1.11
NCI-H1755	1.01	0.999	0.989	1.1	0.995	0.449	0.41	0.443	0.446	0.941	0.908	0.874	0.969	0.946	0.983	1	1.02	0.926
NCI-H2126	0.71	0.824	0.754	0.711	0.689	0.352	0.34	0.352	0.35	1.19	1.07	1.01	1.05	0.998	0.882	0.871	0.871	0.894
NCI-H1944	1.28	1.16	1.38	1.21	1.08	0.298	0.317	0.317	0.319	1.12	1.06	1.16	1.08	1.02	1.05	1.02	1.07	1.02
